# Laboratory results taken from patent US10966426B2, “Herbicidal compositions comprising phenylpyrimidines” (BASF SE, priority 2016, dated 2021).
# Key:
# Format in all cases: in vivo
# Apera spica-venti = assay: greenhouse pre-emergence treatment, APESV; conditions: Apera spica-venti, 480 h, 20 DAT, flumioxazin WG 51% solo 3.75 gai/ha
# Text: (§1) The culture containers used were plastic pots containing loamy sand with approximately 3.0% of humus as substrate. The seeds of the test plants were sown separately for each species.
# (§2) For the pre-emergence treatment, the active compounds, suspended or emulsified in water, were applied directly after sowing by means of finely distributing nozzles. The containers were irrigated gently to promote germination and growth and subsequently covered with transparent plastic hoods until the plants had rooted. This cover caused uniform germination of the test plants unless this was adversely affected by the active compounds.
# (§3) Depending on the species, the plants were kept at 10-25° C. and 20-35° C., respectively.
# (§4) The test period extended over 2 to 4 weeks. During this time, the plants were tended and their response to the individual treatments was evaluated.
# (§5) Evaluation was carried out using a scale from 0 to 100. 100 means no emergence of the plants, or complete destruction of at least the above-ground parts, and 0 means no damage or normal course of growth. A good herbicidal activity is given at values of at least 70, and very good herbicidal activity is given at values of at least 85.
# (§6) The respective stated components A and B, and if appropriate, C were formulated as a 10% by weight strength emulsion concentrate and, with addition of the amount of solvent system, introduced into the spray liquor used for applying the active compound. In the examples, the solvent used was water.
# (§7) In the examples below, using the method of S. R. Colby (1967) “Calculating synergistic and antagonistic responses of herbicide combinations”, Weeds 15, p. 22ff., the value E, which is expected if the activity of the individual active compounds is only additive, was calculated. E=X+Y−(X·Y/100) where X=effect in percent using herbicide A at an application rate a; • Y=effect in percent using herbicide B at application rate b; • E=expected effect (in %) of herbicide A+herbicide B at application rates a+b.
# Galium aparine = assay: greenhouse pre-emergence treatment, GALAP; conditions: GALAP; for % activity, solo application: Table X2
# Text: as §1, §2, §3, §4, §5, §6, §7
# Ambrosia elatior = assay: greenhouse pre-emergence treatment, AMBEL; conditions: AMBEL; for % activity: 21 DAT; for % activity, solo application: Table X2
# Text: as §1, §2, §3, §4, §5, §6, §7
# Helianthus annuus = assay: greenhouse pre-emergence treatment, HELAN; conditions: HELAN
# Text: as §1, §2, §3, §4, §5, §6, §7
# Brachiaria decumbens [1] = assay: greenhouse pre-emergence treatment, BRADC; conditions: 20 DAT, BRADC
# Text: as §1, §2, §3, §4, §5, §6, §7
# Lolium multiflorum = assay: greenhouse pre-emergence treatment, LOLMU; conditions: 20 DAT, LOLMU
# Text: as §1, §2, §3, §4, §5, §6, §7
# Polygonum convolvulus = assay: greenhouse pre-emergence treatment, POLCO; conditions: POLCO
# Text: as §1, §2, §3, §4, §5, §6, §7
# Setaria viridis [2] = assay: greenhouse post-emergence treatment, SETVI; conditions: 20 DAT, SETVI
# Outline: (§8)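 Scoring ran on a 0-100 scale, 100 meaning no emergence or destroyed above-ground parts, over a 2-4 week period; Colby formula E=X+Y−(X·Y/100) gave expected mixture effects. Species grew separately in loamy sand (about 3.0% humus) at 10-25° C or 20-35° C, with water as solvent.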
# Alopecurus myosuroides = assay: greenhouse post-emergence treatment, ALOMY; conditions: solo, WG 75%, ALOMY, 50 gai/ha, 20 DAT
# Outline: as §8
# Matricaria chamomilla = assay: greenhouse post-emergence treatment, MATCH; conditions: solo, WG 75%, MATCH, 20 DAT
# Outline: (§9)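 Foliar application to greenhouse-grown plants 3–15 cm tall in humus-containing loamy sand; response assessed on a 0–100 scale after 2–4 weeks, with Colby's E=X+Y−(X·Y/100) as the additive expectation.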
# Poa annua = assay: greenhouse post-emergence treatment, POAAN; conditions: solo, WG 75%, POAAN, 12.5 gai/ha, 20 DAT
# Outline: (§10)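 Plants in loamy sand (~3.0% humus) were sprayed post-emergence at 3–15 cm height with actives in a water spray liquor made from 10% by weight emulsion concentrates. Plants were kept at 10-25° C. or 20-35° C. by species and rated over 2–4 weeks on a 0–100 scale (100 = complete destruction). Colby's E = X+Y−(X·Y/100) gave the expected additive effect.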
# Brachiaria decumbens [3] = assay: greenhouse post-emergence treatment, BRADC; conditions: 20 DAT, BRADC
# Outline: as §10
# Stellaria media = assay: greenhouse pre-emergence treatment, STEME; conditions: 21 DAT
# Text: as §1, §2, §3, §4, §5, §6, §7
# Papaver rhoeas = assay: greenhouse post-emergence treatment, PAPRH; conditions: solo, WG 75%, PAPRH, 20 DAT
# Outline: as §9
# Digitaria sanguinalis [4] = assay: greenhouse post-emergence treatment, DIGSA; conditions: solo, WG 75%, DIGSA, 100 gai/ha, 20 DAT
# Outline: as §8
# Setaria viridis [5] = assay: greenhouse pre-emergence treatment, SETVI; conditions: SETVI; for % activity: 21 DAT
# Text: as §1, §2, §3, §4, §5, §6, §7
# Bromus sterilis [6] = assay: greenhouse post-emergence treatment, BROST; conditions: solo, WG 75%, BROST, 20 DAT
# Outline: as §8
# Bromus sterilis [7] = assay: greenhouse pre-emergence treatment, BROST; conditions: solo, WG 75%, BROST, 50 gai/ha, 21 DAT
# Text: as §1, §2, §3, §4, §5, §6, §7
# Digitaria sanguinalis [8] = assay: greenhouse pre-emergence treatment, DIGSA; conditions: DIGSA; for % activity: 21 DAT
# Text: as §1, §2, §3, §4, §5, §6, §7
# Avena fatua = assay: greenhouse pre-emergence treatment, AVEFA; conditions: AVEFA, trifludimoxazin solo 36 gai/ha, 20 DAT
# Text: as §1, §2, §3, §4, §5, §6, §7
# [9] = solo, WG 75%, 12.5 gai/ha, 21 DAT
# [10] = solo, WG 75%, 25 gai/ha, 21 DAT
# [11] = solo, WG 75%, 50 gai/ha, 21 DAT
# [12] = 4.5 gai/ha (SC 500 g/l), 20 DAT
# [13] = trifludimoxazin solo 18 gai/ha, 20 DAT
# [14] = trifludimoxazin solo 36 gai/ha, 20 DAT
# [15] = 4.5 gai/ha (SC 500 g/l), 20 DAT, Table X2
structure (smiles),measurement,setting,value
C#CCN1C(=O)COc2cc(F)c(N3C(=O)C4=C(CCCC4)C3=O)cc21 [flumioxazin],inhibition at 3.75 g/ha,Apera spica-venti,25%
same,"% herbicidal activity (weed control, 0-100 scale) at […]","Galium aparine; Galium aparine, 480 h, 20 DAT, flumioxazin WG 51% solo 7.5 gai/ha",0%
same,"% herbicidal activity (weed control, 0-100 scale) at 30 g/ha","Galium aparine; Galium aparine, 480 h, 20 DAT, flumioxazin WG 51% solo 30 gai/ha",65%
same,"percent weed control (herbicidal activity, 0-100 scale) at 3.75 g/ha","Ambrosia elatior; Ambrosia artemisiifolia, 480 h, 20 DAT, flumioxazin WG 51% solo 3.75 gai/ha",0%
same,"percent weed control (herbicidal activity, 0-100 scale) at […]","Ambrosia elatior; Ambrosia artemisiifolia, 480 h, 20 DAT, flumioxazin WG 51% solo 7.5 gai/ha",0%
same,inhibition at 30 g/ha,"Helianthus annuus; Helianthus annuus, 480 h, 20 DAT, flumioxazin WG 51% solo 30 gai/ha",50%
same,"% herbicidal activity (weed control, 0-100 scale) at 15 g/ha","Brachiaria decumbens [1]; Urochloa decumbens, 480 h, flumioxazin WG 51% solo 15 gai/ha",40%
same,inhibition at 30 g/ha,"Lolium multiflorum; Lolium multiflorum, 480 h, flumioxazin WG 51% solo 30 gai/ha",65%
same,inhibition at […],"Polygonum convolvulus; Fallopia convolvulus, 480 h, 20 DAT, flumioxazin WG 51% solo 7.5 gai/ha",65%
O=C(Nc1ccc(F)cc1)c1cccc(Oc2cccc(C(F)(F)F)c2)n1 [picolinafen],% activity,Setaria viridis [2]; picolinafen WG 75% solo 12.5 gai/ha,30%
same,% activity,"Setaria viridis [2]; solo, WG 75%, 12.5 gai/ha",30%
same,% activity,"Setaria viridis [2]; solo, WG 75%, 50 gai/ha",80%
same,% activity,Alopecurus myosuroides,10%
same,% activity,Matricaria chamomilla; 12.5 gai/ha,0%
same,% activity,Matricaria chamomilla; 25 gai/ha,20%
same,% activity,Matricaria chamomilla; 50 gai/ha,20%
same,% activity,Galium aparine; [9],0%
same,% activity,Galium aparine; [10],0%
same,% activity,Poa annua,40%
same,% activity,Brachiaria decumbens [3]; picolinafen WG 75% solo 25 gai/ha,35%
same,% activity,Brachiaria decumbens [3]; picolinafen WG 75% solo 50 gai/ha,50%
same,% activity,"Brachiaria decumbens [3]; solo, WG 75%, 25 gai/ha",35%
same,% activity,"Brachiaria decumbens [3]; solo, WG 75%, 50 gai/ha",50%
same,% activity,Ambrosia elatior; picolinafen solo 50 gai/ha,0%
same,% activity,"Ambrosia elatior; solo, WG 75%, 12.5 gai/ha",0%
same,% activity,"Ambrosia elatior; solo, WG 75%, 25 gai/ha",0%
same,% activity,"Ambrosia elatior; solo, WG 75%, 50 gai/ha",0%
same,% activity,"Helianthus annuus; picolinafen solo 12.5 gai/ha, 21 DAT",10%
same,% activity,"Helianthus annuus; picolinafen solo 50 gai/ha, 21 DAT",15%
same,% activity,Helianthus annuus; [9],10%
same,% activity,Helianthus annuus; [10],20%
same,% activity,Helianthus annuus; [11],15%
same,% activity,Stellaria media; picolinafen solo 25 gai/ha,20%
same,% activity,Stellaria media; picolinafen solo 50 gai/ha,50%
same,% activity,Stellaria media; picolinafen solo 100 gai/ha,65%
same,% activity,Papaver rhoeas; 12.5 gai/ha,35%
same,% activity,Papaver rhoeas; 25 gai/ha,40%
same,% activity,Papaver rhoeas; 50 gai/ha,55%
same,% activity,Papaver rhoeas; 100 gai/ha,80%
same,% activity,Digitaria sanguinalis [4],75%
same,% activity,Setaria viridis [5]; picolinafen solo 25 gai/ha,70%
same,% activity,Setaria viridis [5]; picolinafen solo 50 gai/ha,80%
same,% activity,Setaria viridis [5]; picolinafen solo 100 gai/ha,85%
same,% activity,Setaria viridis [5]; picolinafen solo 250 gai/ha,70%
same,% activity,"Setaria viridis [5]; solo, WG 75%, 12.5 gai/ha",45%
same,% activity,"Setaria viridis [5]; solo, WG 75%, 50 gai/ha",80%
same,% activity,Polygonum convolvulus; [11],20%
same,% activity,Bromus sterilis [6]; 12.5 gai/ha,0%
same,% activity,Bromus sterilis [6]; 25 gai/ha,0%
same,% activity,Bromus sterilis [6]; 50 gai/ha,10%
same,% activity,Bromus sterilis [6]; 100 gai/ha,20%
same,% activity,Bromus sterilis [7],20%
same,% activity,Digitaria sanguinalis [8]; picolinafen solo 12.5 gai/ha,0%
same,% activity,"Digitaria sanguinalis [8]; solo, WG 75%, 25 gai/ha",30%
same,% activity,"Digitaria sanguinalis [8]; solo, WG 75%, 50 gai/ha",60%
C#CCN1C(=O)C(F)(F)Oc2cc(F)c(-n3c(=O)n(C)c(=S)n(C)c3=O)cc21 [trifludimoxazin],"% activity, solo application",Galium aparine; [12],0%
same,"% activity, solo application","Galium aparine; 9 gai/ha (SC 500 g/l), 20 DAT",0%
same,"% activity, solo application","Galium aparine; 18 gai/ha (SC 500 g/l), 20 DAT",0%
same,"% activity, solo application","Galium aparine; 36 gai/ha (SC 500 g/l), 20 DAT",40%
same,% activity,"Galium aparine; trifludimoxazin solo 4.5 gai/ha, 20 DAT",0%
same,% activity,"Galium aparine; trifludimoxazin solo 9 gai/ha, 20 DAT",0%
same,% activity,Galium aparine; [13],0%
same,% activity,Galium aparine; [14],40%
same,"% activity, solo application",Ambrosia elatior; [12],0%
same,"% activity, solo application","Ambrosia elatior; 9 gai/ha (SC 500 g/l), 20 DAT",50%
same,"% activity, solo application","Helianthus annuus; 18 gai/ha (SC 500 g/l), 20 DAT, Table X2",0%
same,% activity,Helianthus annuus; [13],0%
same,% activity,Helianthus annuus; [14],30%
same,"% activity, solo application","Brachiaria decumbens [1]; 9 gai/ha (SC 500 g/l), Table X2",45%
same,% activity,Brachiaria decumbens [1]; trifludimoxazin solo 18 gai/ha,50%
same,% activity,Brachiaria decumbens [1]; trifludimoxazin solo 36 gai/ha,80%
same,% activity,Avena fatua,50%
same,% activity,Lolium multiflorum; trifludimoxazin solo 36 gai/ha,75%
same,"% activity, solo application",Setaria viridis [5]; [15],75%
same,"% activity, solo application",Digitaria sanguinalis [8]; [15],50%
